Tested on: striatum of normal Sprague-Dawley (SD) rats
Test: Cytotoxic tissue response after CED in rat striatum, T2-weighted and diffusion-weighted MRI 24 hours post treatment
Experimental: The resultant solution was infused into the striatum of normal Sprague-Dawley (SD) rats (males, 250-300 grams). T1-weighted MR images were acquired immediately post treatment to assess the extent of convection. Additionally, T2-weighted and diffusion-weighted MR images were acquired 24 hours post treatment to assess the response of the tissue and its correlation to the extent of convection.
In order to obtain a wide range in volumes of distribution, the infusion times were varied between 17 to 60 minutes. 13 rats were treated with Carboplatin (4 mg/ml, 17 minutes infusion). In order to obtain a wide range in volumes of distributions, in 6 out of those, the composition viscosity was increased by adding sucrose to the solution prior to infusion (Carboplatin 4 mg/ml, sucrose concentration-12%).
Early assessment of tissue response was performed using diffusion-weighted and T2-weighted MR images. The diffusion-weighted images were obtained by acquiring conventional T2-weighted images with the addition of diffusion-weighting gradients that filter out the signal from high mobility water molecules and sensitize the MR images to molecular diffusion/mobility [Stejskal et al. supra]. Regions of accumulated liquids or severe necrosis appear dark in diffusion-weighted MRI, while regions of slow water accumulation, such as in the case of intracellular water accumulation or inflammation, appear brighter.
The diffusion-weighted and T2-weighted MR images were obtained by a General Electric™ 3.0 T MRI machine with 10.4M 1× operating system, gradients intensity of up to 4.3 Gauss/cm and line scan diffusion-weighted imaging [Gudbjartsson et al., “Line scan diffusion imaging”, Magn. Reson. Med. 36:509-519, 1996] acquisition software package. Specially designed animal volume coils of 5 cm diameter were used for data acquisition.
The T2-weighted fast spin echo (FSE) MR images were acquired with: 256×128 matrix, FOV=12×9 cm^2, TR=3000 ms, TE=90 ms, and 2 mm slices with 0.5 mm gap. […]

## N.N.O=C([O-])C1(C(=O)[O-])CCC1.[Pt+2] [Carboplatin]
Cases of efficient convection, 24 hours post treatment
  enhancement in diffusion-weighted MR images: significant enhancement

## CC(=O)O[C@H]1C(=O)[C@@]2(C)[C@H]([C@H](OC(=O)c3ccccc3)[C@]3(O)C[C@H](OC(=O)[C@H](O)[C@@H](NC(=O)c4ccccc4)c4ccccc4)C(C)=C1C3(C)C)[C@]1(OC(C)=O)CO[C@@H]1C[C@@H]2O [Taxol®, Taxol]
rat, in vivo
  histology of en block-resected lesion from rat brain: Severe damage covering most of the striatum is seen with widespread necrosis and early gliotic changes
  tissue toxicity: severe tissue toxicity

From patent publication US8391959B2, “Composition for improving efficiency of drug delivery” (Tel HaShomer Medical Research Infrastructure and Services …, priority 2004, dated 2013)
